melting point [°C]	SMILES
82 to 84	COc1ccc(C(C)=O)cc1Br
111 to 113	O=C(O)CCOc1cccc([N+](=O)[O-])c1
52 to 54	Nc1cc(C2CC2)no1
50 to 57	Cc1ccc(C(C)(C)CC(=O)O)cc1
193 to 195	CCCn1c(N)c(NCCOC)c(=O)[nH]c1=O
139 to 141	O=C(O)CCC(=O)c1csc2ccccc12
168 to 170	O=S1(=O)CCC2(CC1)CO2
104 to 106	CNC(=O)CC(=O)O
291 to 293	NC(=O)NCc1ccc(C(=O)O)cc1
108 to 110	O=C(CCl)Nc1ccc2c(c1)OCCCO2
80 to 82	CC(=O)Cn1cnc(C)c1C
111 to 115	Cn1c(S)nnc1-c1ccc(F)cc1
278 to 280	O=C(O)Cc1cc2ccccc2[nH]c1=O
94 to 96	CSc1ccc(OC(C)C(=O)O)cc1 (stereo not given)
150 to 152	O=C(Nc1ccccc1)C(Cl)c1ccccc1 (stereo not given)
218 to 220	Cc1ccc(-n2cnnc2SCC(=O)O)cc1
151 to 153	O=C(CC1(C(=O)O)CCCCC1)NC1CC1
177 to 179	Nc1ncc(Cc2ccc(S(N)(=O)=O)cc2)s1
51 to 53	O=Cc1nccc2ccccc12
91 to 93	Fc1cc2ncc(Cl)nc2cc1F
116 to 118	O=C(O)C1CC=CCC1C(=O)N1CCCC1 (stereo not given)
84 to 86	CC(COc1ccccc1)C(=O)O (stereo not given)
159 to 161	COC(=O)c1cc2c(Br)cccc2[nH]1

melting point [°C]	SMILES
191 to 193	Cc1n[nH]c(C)c1S(=O)(=O)N1CCC(=O)CC1
178 to 180	O=C(O)C1CNc2ccccc21 (stereo not given)
69 to 71	Cc1cc(N)ccc1C(=O)OC(C)(C)C
193 to 195	Cc1csc(=O)n1CC(=O)O
91 to 93	Cn1cc([N+](=O)[O-])cn1
160 to 162	Sc1nnc(Nc2ccccc2)s1
120 to 122	CC(=O)N1CCC(NC(=O)CCl)CC1
146 to 148	CC(C)c1c(C(=O)O)nnn1-c1ccc(F)cc1
174 to 176	Nc1cc(-c2cccnc2)no1
157 to 159	O=C(O)C1CCCN(C(=O)c2ccc(Br)c(F)c2)C1 (stereo not given)
126 to 128	CCc1onc(C)c1C(=O)O
182 to 184	CC(=O)Nc1[nH]c(=O)ccc1[N+](=O)[O-]
78 to 80	CCCc1c(C(=O)O)nnn1-c1cccc(C(C)C)c1
76 to 78	Nc1ccc(S(=O)C(F)(F)F)cc1 (stereo not given)
128 to 130	Cn1nnnc1Sc1ccc(Cl)cc1N
210 to 212	Cc1cc(C(=O)O)c(C(=O)O)s1
46 to 48	CSc1ccc(S(=O)(=O)Cl)cc1
102 to 104	COC(=O)C(C)NC(=O)c1ccc(Cl)c([N+](=O)[O-])c1 (stereo not given)
162 to 164	Sc1nnc(-c2cccs2)o1
109 to 111	C=CCn1c(S)nc2ccccc21
219 to 221	CCOC(=O)c1oc(N)nc1C
274 to 276	NS(=O)(=O)c1ccc(C(=O)O)cc1F
43 to 45	CS(=O)(=O)c1cccs1

melting point [°C]	SMILES
257 to 259	Nc1cc([N+](=O)[O-])ccc1C(=O)O
182 to 184	O=C(O)c1ccc(Oc2ccccc2Br)nc1
118 to 120	O=C(CN1C(=O)CCC1=O)c1ccccc1Cl
55 to 59	N#Cc1ccc(OCCBr)cc1
185 to 187	CN(C)S(=O)(=O)c1ccc(C(=O)O)cc1Br
146 to 148	CN(C)C(=O)N1CCC(C(=O)O)CC1
119 to 121	COc1ccc(NS(=O)(=O)c2ccc(N)cc2)c(OC)c1
175 to 177	O=S1(=O)CCC(S(=O)(=O)Cl)CC1
116 to 118	NC(=NO)C1CN(Cc2ccccc2)CCO1 (stereo not given)
144 to 146	O=C1NCCc2ccc(Br)cc21
205 to 220	COc1ccc(-c2cc(C(=O)NN)[nH]n2)cc1
197 to 199	ON=Cc1ccccc1OCc1cn2ccccc2n1
156 to 158	O=C(Nc1cccc2c1CCCN2)c1ccc(F)cc1
129 to 131	O=C(O)c1noc(-c2ccc(F)cc2)n1
43 to 45	Nc1ccc(OCc2cccc(F)c2)c(F)c1
118 to 120	CNc1ccc(C=O)cc1[N+](=O)[O-]
347 to 349	NC(=O)c1ccc(C(=O)O)cn1
215 to 217	COC(=O)c1n[nH]c(=O)c2noc(C)c12
136 to 138	Nc1ccccc1-n1ccc(C(=O)O)n1
218 to 220	Oc1nc(-c2ccc(Cl)cc2)cs1
177 to 179	O=C(O)c1cccnc1Oc1ccc(Br)cc1
211 to 213	Nc1ccc2c(c1)C(=O)N(c1ccc(F)cc1)C2=O
209 to 211	Clc1cc(Cl)cc(-c2nnc3ccc(Cl)nn23)c1

melting point [°C]	SMILES
62 to 64	CC(=O)c1ccc(C#N)c(F)c1
144 to 146	Cc1ccc(NC(=O)NC(=O)CCl)cc1C
195 to 197	Nc1cccc(S(=O)(=O)Nc2ccccc2F)c1
244 to 246	COc1ccc(-c2nn(-c3ccccc3)cc2C(=O)O)cc1
152 to 155	O=C(O)CCCNS(=O)(=O)c1cccc(C(F)(F)F)c1
55 to 57	Fc1cccc(-c2nc(CCl)co2)c1
96 to 98	NS(=O)(=O)C1CCCOC1 (stereo not given)
74 to 76	COc1cc(CC(=O)O)ccc1C
101 to 103	CC(CC(=O)O)c1ccc(Br)cc1 (stereo not given)
132 to 134	CCOc1ccc(S(=O)(=O)N2CCNCC2)cc1OCC
149 to 151	CC(=O)NC1(c2noc(CCC(=O)O)n2)CCCCCC1
73 to 75	CC(C)C(O)Cc1ccccc1Br (stereo not given)
105 to 107	Nc1nonc1-c1ccc(Cl)cc1Cl
139 to 141	NC(=O)NCc1ccccn1
108 to 110	CCOC(=O)c1[nH]c(C)c(C(=O)OCC)c1CC
223 to 226	CN(C)C(N)=NC(=N)N
93 to 95	FC(F)(F)Cn1cnnc1S
45 to 47	ClCc1nnnn1-c1ccccc1Br
188 to 190	Cc1cccc2c(CC(=O)O)c[nH]c12
98 to 100	O=Cc1cccc(OCCC(=O)O)c1
229 to 231	O=C(O)C1CCc2[nH]ncc2C1 (stereo not given)
194 to 196	Nc1cccc(S(=O)(=O)Nc2cn[nH]c2)c1
124 to 126	O=C(O)CCS(=O)(=O)c1ccc2c(c1)CCC2

melting point [°C]	SMILES
65 to 67	Cc1noc(-c2ccnc(Cl)c2)n1
162 to 164	Nc1ccc(S(=O)(=O)Nc2ccc([N+](=O)[O-])cc2)cc1
74 to 76	CN(C)C(=O)c1cc(F)c(NN)c(F)c1
181 to 183	N#Cc1c(Cl)nc2ccccn12
155 to 157	Cc1ccc(CC(=O)NO)cc1
98 to 100	O=C(O)c1cccc(S(=O)(=O)N2CCCc3ccccc32)c1
164 to 166	CNS(=O)(=O)c1ccc(-c2cccs2)c(C(=O)O)c1
143 to 145	COc1ccccc1Nc1nc(-c2ccc(C)cc2)cs1
88 to 90	Cc1cc(C(=O)CCl)c(C)n1CC1CCCO1 (stereo not given)
119 to 121	Nc1nc(-c2ccccc2Cl)ns1
122 to 124	Cc1cc(C=O)c(C)n1CC#N
135 to 136	Nc1ccccc1C(=O)NC1CC1
140 to 142	CC(C)(C)OC(=O)N1CC(=CC(=O)O)C1
126 to 128	O=C(O)C1CSc2ccccc2O1 (stereo not given)
174 to 176	CS(=O)(=O)Cc1nc(Cl)c(Br)c(Cl)n1
108 to 110	Nc1ccc(OCC2CCOCC2)cc1
207 to 209	CCS(=O)(=O)c1ccc(NC(=O)CCl)c(O)c1
164 to 166	O=C(O)c1ccccc1NS(=O)(=O)C(F)(F)F
110 to 112	Nc1cccc2[nH]cnc12
197 to 199	Cc1ccc(C(=O)O)c(O)c1C
151 to 153	Nc1nc(-c2cccc(O)c2)cs1
152 to 154	CC(=O)c1cnn(-c2ccc(C#N)cc2)c1C
216 to 218	COc1cc(C(=O)O)ccc1OCc1c(C)noc1C

melting point [°C]	SMILES
76 to 78	O=C(O)CCc1cc(Br)cs1
195 to 197	Nc1cc(Cl)c(NC(=O)c2cnccn2)c(Cl)c1
192 to 194	Cc1ccc(-c2csc(S)n2)cc1
54 to 56	Nc1ccc(F)cc1-c1ccc(Cl)cc1
299 to 301	O=C(O)c1ccc(=O)n(-c2ccc(F)cc2)c1
177 to 179	O=C(O)c1cc(Br)nn1-c1ccc(F)cc1
52 to 54	O=[N+]([O-])c1cc(S(=O)(=O)Cl)ccc1O
182 to 184	NC(=S)Nc1ccc(Cl)nc1
255 to 257	O=C(O)Cc1csc(-c2ccc(Cl)cc2)n1
109 to 111	Cc1nnnn1-c1cc(N)ccc1F
159 to 161	Cn1ncc(-c2nc(C3CC3)no2)c1N
152 to 155	Nc1c(-c2ccccc2)nc2ccccn12
200 to 202	Cc1n[nH]c(-c2ccc(Cl)c(Cl)c2)n1
50 to 52	CC(C)Oc1ccc(C#N)cc1
53 to 55	CCOC(=O)C(=O)C=Cc1ccsc1
128 to 130	N#Cc1cnc2ccccc2c1Cl
87 to 89	CC(=O)NCCc1ccc(S(=O)(=O)Cl)s1
201 to 203	CCOC(=O)c1c[nH]n2c1nc(=O)c1ccccc12
126 to 128	O=C(O)Cc1cccc(OCc2ccc(Cl)cc2)c1
170 to 172	N#Cc1nccnc1Oc1ccc(N)cc1
64 to 66	CCOC(=O)c1c(-c2ccccc2)csc1NC(=O)CCCl
202 to 204	O=C(O)CC1SC(=Nc2ccccc2)NC1=O (stereo not given)
45 to 47	Cc1cccc(C2(C(F)(F)F)CCCN2)c1C (stereo not given)

SMILES	melting point [°C]
O=C(O)c1cn(Cc2cccc(F)c2)nn1	189 to 191
CC(=O)c1ccc(N2CCNCC2)c(F)c1	104 to 106
COCCn1nnnc1N	114 to 116
O=C1CC(c2ccccn2)CN1 (stereo not given)	79 to 81
NC(=O)CN1CC(O)CC1=O (stereo not given)	133 to 135
CC(Oc1ccc(Br)cc1)C(=O)O (stereo not given)	118 to 120
Cc1cc(NC(=O)CCl)on1	106 to 108
